For orientation: IC50 means the concentration at which inhibition is half-maximal. The low end stands for higher potency, the high end for lower potency.

The subject of test [1] is F/L-HERc cells expressing human EGF-R. Put plainly: Inhibition of EGF-dependent proliferation of F/L-HERc cells. The format is cell-based, murine cell line; human EGF-R. The following applies: EGF 20 ng/ml, 37° C., 48 hours. From the text: (§1) In this case, an interleukin-3 (IL-3)-dependent cell line of murine origin was used and was genetically modified in such a way that it expresses functional human EGF-R. Proliferation of these cells, which are called F/L-HERc, can therefore be stimulated either by murine IL-3 or by EGF (see von Ruden, T. et al. in EMBO J. 7, 2749-2756 (1988) and Pierce, J. H. et al. in Science 239, […] (1988)).
(§2) The starting material for the F/L-HERc cells was the cell line FDC-P1 whose preparation has been described by Dexter, T. M. et al. in J. Exp. Med. 152, 1036-1047 (1980). However, it is also possible as an alternative to use other growth factor-dependent cells (see, for example, Pierce, J. H. et al. in Science 239, 628-631 (1988), Shibuya, H. et al. in Cell 70, 57-67 (1992) and Alexander, W. S. et al. in EMBO J. 10, 3683-3691 (1991)). Recombinant retroviruses as described in von Ruden, T. et al., EMBO J. 7, 2749-2756 (1988) Were used for expression of the human EGF-R cDNA (see Ullrich, A. et al. in Nature 309, 418-425 (1984)), with the difference that the retroviral vector LXSN (see Miller, A. D. et al. in BioTechniques 7, 980-990 (1989)) was employed for expression of the EGF-R cDNA, and the line GP+E86 (see Markowitz, D. et al. in J. Virol. 62, 1120-1124 (1988)) was used as packaging cell.
(§3) F/L-HERc cells were cultivated in RPMI/1640 medium (BioWhittaker), supplemented with 10% fetal calf serum (FCS, Boehringer Mannheim), 2 mM glutamine (BioWhittaker), standard antibiotics and 20 ng/ml human EGF (Promega), at 37° C. and 5% CO2. To investigate the inhibitor activity of the compounds according to the invention, 1.5×10^4 cells were cultivated in the above medium (200 μl) per well in triplicates in 96-well plates, stimulating proliferation of the cells either with EGF (20 ng/ml) or with murine IL-3. The source used for IL-3 was culture supernatants from the cell line X63/0 mIL-3 (see Karasuyama, H. et al. in Eur. J. Immunol. 18, 97-104 (1988)). The compounds according to the invention were dissolved in 100% dimethyl sulphoxide (DMSO) and added in various dilutions to the cultures, with the maximum DMSO concentration being 1%. The cultures were incubated at 37° C. for 48 hours.
(§4) To determine the inhibitory activity of the compounds according to the invention, the relative cell count was measured in O.D. units using the Cell Titre 96™ AQueous Non-Radioactive Cell Proliferation Assay (Promega). The relative cell count was calculated as a percent of the control (F/L-HERc cells without inhibitor), and the concentration of active substance which inhibits the proliferation of the cells by 50% (IC50) was inferred.

Test [2] has as its system F/L-HERc cells. Nature of the test: Inhibition of IL-3-dependent proliferation of F/L-HERc cells. The format is cell-based. The following applies: Mus musculus, murine IL-3, 37° C., 48 hours.
Excerpt: as §1, §2, §3, §4

Bounds are passed on as bounds.

In the case of `CN1CCC(C2CCN(c3ncc4ncnc(Nc5ccc(F)c(Cl)c5)c4n3)CC2)CC1` [1(41), 4-[(3-Chloro-4-fluorophenyl)amino]-6-[4-(1-methyl-4-piperidinyl)-1-piperidinyl]pyrimido[5,4-d]pyrimidine], the results for the IC50 in test [1] and in test [2] were 200 nM and more than 1000 nM, respectively.

Regarding `Fc1ccc(Nc2ncnc3cnc(NC4CCCN(Cc5ccccc5)CC4)nc23)cc1Cl` (centres unmarked) [1(42), 4-[(3-Chloro-4-fluorophenyl)amino]-6-[1-benzyl-4-(1-azacycloheptyl)amino]pyrimido[5,4-d]pyrimidine], the IC50 in test [1] was more than 100 nM; in test [2], more than 1000 nM.

`CN1CCN(C2CCC(Nc3ncc4ncnc(Nc5ccc(F)c(Cl)c5)c4n3)CC2)CC1` (centres unmarked) [1(46), 4-[(3-Chloro-4-fluorophenyl)amino]-6-[4-(1-methyl-4-piperazinyl)cyclohexylamino]pyrimido[5,4-d]pyrimidine]: the IC50 in test [1] is 2 nM; in test [2], more than 1000 nM.

Turning to `OCc1cccc(Nc2ncnc3cnc(N[C@H]4CC[C@H](O)CC4)nc23)c1` [1(47), 4-[(3-Hydroxymethylphenyl)amino]-6-[trans-4-hydroxycyclohexylamino]pyrimido[5,4-d]pyrimidine], the values for the half-maximal inhibitory concentration (IC50) in test [1] and in test [2] were more than 100 nM and more than 1000 nM, respectively.

`OC1CCN(c2ncc3ncnc(Nc4ccc(F)c(Cl)c4)c3n2)CC1` [1(48), 4-[(3-Chloro-4-fluorophenyl)amino]-6-[4-hydroxy-1-piperidinyl]pyrimido[5,4-d]pyrimidine]: the results for the IC50 in test [1] and in test [2] were 36 nM and more than 1000 nM, respectively.

Take `Fc1ccc(Nc2ncnc3cnc(N4CCCCC4)nc23)cc1Cl` [1(49), 4-[(3-chloro-4-fluorohenyl)amino]-6-[1-piperidinyl]pyrimido[5,4-d]pyrimidine]: the IC50 in test [1] and in test [2] was more than 1000 nM throughout.

Regarding `N#CN1CCC(Nc2ncc3ncnc(Nc4ccc(F)c(Cl)c4)c3n2)CC1` [1(50), 4-[(3-Chloro-4-fluorophenyl)amino]-6-[(1-cyano-4-piperidinyl)amino]pyrimido[5,4-d]pyrimidine], the 50% inhibitory concentration (IC50) is 3 nM in test [1] and more than 1000 nM in test [2].

Consider `CN1CCC(CNc2ncc3ncnc(Nc4ccc(F)c(Cl)c4)c3n2)CC1` [1(51), 4-[(3-Chloro-4-fluorophenyl)amino]-6-[(1-methyl-4-piperidinyl)methylamino]pyrimido[5,4-d]pyrimidine], for which the IC50 is 9 nM in test [1] and more than 1000 nM in test [2].

On to `O=C(N1CCOCC1)N1CCN(CCNc2ncc3ncnc(Nc4ccc(F)c(Cl)c4)c3n2)CC1` [1(52), 4-[(3-Chloro-4-fluorophenyl)amino]-6-[2-(4-(morpholinocarbonyl)-1-piperazinyl)ethylamino]pyrimido[5,4-d]pyrimidine], for which the values for the IC50 in test [1] and in test [2] were 10 nM and more than 1000 nM, respectively.

As for `Nc1ncc2ncnc(Nc3ccc(F)c(Cl)c3)c2n1` [1(53), 4-[(3-Chloro-4-fluorophenyl)amino]-6-aminopyrimido-[5,4-d]pyrimidine], the IC50 in test [1] was more than 100 nM; in test [2] it was more than 1000 nM.

As for `NCCCCCNc1ncc2ncnc(Nc3ccc(F)c(Cl)c3)c2n1` [1(54), 4-[(3-Chloro-4-fluorophenyl)amino]-6-[5-aminopentylamino]pyrimido[5,4-d]pyrimidine], the concentration for half-maximal inhibition (IC50) in test [1] was 10 nM; in test [2], more than 1000 nM.

Take `Fc1ccc(Nc2ncnc3cnc(N4CCCCCC4)nc23)cc1Cl` [1(55), 4-[(3-Chloro-4-fluorophenyl)amino]-6-[1-azacycloheptyl]pyrimido[5,4-d]pyrimidine]: the figures for the half-maximal inhibitory concentration (IC50) in test [1] and in test [2] were 40 nM and more than 1000 nM, respectively.

With `NC1CCCN(c2ncc3ncnc(Nc4ccc(F)c(Cl)c4)c3n2)CC1` (centres unmarked) [1(56), 4-[(3-Chloro-4-fluorophenyl)amino]-6-[4-amino-1-azacycloheptyl]pyrimido[5,4-d]pyrimidine], the IC50 in test [1] is 40 nM; in test [2], more than 1000 nM.

Source of the values: patent US5821240A, “Pyrimido[5,4]-dipyrimidines, pharmaceuticals containing them, their use and processes for the preparation thereof” (Dr. Karl Thomae GmbH, priority 1996, dated 1998).
